Measurements taken from patent publication US20070009944A1, “Assay for nucleic acid ligase and nucleic acid nuclease” (University of East Anglia, priority 2005, published 2007).
pIC50: −log10 of the molar value. Where a name gives a salt, the structure may show the parent alone.

Target: T1, E. coli DNA ligase (LigA) (Escherichia coli, UniProt P15042)
T1 construct: His tag; made in house
Test: In-well ligation of immobilised nicked DNA hairpins (fluorescence retention, micro-titre plate)
Assay type: biochemical
Settings: 15 nM E. coli DNA ligase; ligates 60% of immobilized hairpins without inhibitor; FIG. 8; read-out: 50% inhibition of E. coli DNA ligase activity
Experimental: Ligation of immobilised nicked hairpins was performed in the streptavidin coated wells of a micro-titre plate (StreptaWell HighBind 96-well plate, opaque, white). After each of the following steps were performed, the entire solution in the well was removed and stored or discarded, as required. Hairpins were immobilised by placing 80 μL of a 5 μM hairpin solution into each well. The hairpin solution was removed after 5 minutes and the wells washed 5 times with 100 μL Wash Buffer (30 mM Tris-HCl, 4 mM MgCl2, pH 8.1), which allowed a stable fluorescence signal to be obtained from the immobilised hairpins. […] Fluorescence was recorded with a FL×800 Microplate Fluorescence Reader (Bio-Tek Instruments Inc). […]
In-well ligation of the nicked DNA hairpins by LigA was reflected by retention of fluorescence after exposure to DNA ligase and denaturation conditions, as shown in FIG. 6. […] The retention of fluorescence after exposure to DNA ligase and denaturation conditions is in contrast to the almost complete loss of fluorescence noted when the experiment was repeated without DNA ligase. […] The efficiency of in-well ligation was calculated in the following manner. The fluorescence retained in control experiments with the nicked hairpin was taken as a measure of background fluorescence intensity. […]

T1 sequence (P15042 whole entry): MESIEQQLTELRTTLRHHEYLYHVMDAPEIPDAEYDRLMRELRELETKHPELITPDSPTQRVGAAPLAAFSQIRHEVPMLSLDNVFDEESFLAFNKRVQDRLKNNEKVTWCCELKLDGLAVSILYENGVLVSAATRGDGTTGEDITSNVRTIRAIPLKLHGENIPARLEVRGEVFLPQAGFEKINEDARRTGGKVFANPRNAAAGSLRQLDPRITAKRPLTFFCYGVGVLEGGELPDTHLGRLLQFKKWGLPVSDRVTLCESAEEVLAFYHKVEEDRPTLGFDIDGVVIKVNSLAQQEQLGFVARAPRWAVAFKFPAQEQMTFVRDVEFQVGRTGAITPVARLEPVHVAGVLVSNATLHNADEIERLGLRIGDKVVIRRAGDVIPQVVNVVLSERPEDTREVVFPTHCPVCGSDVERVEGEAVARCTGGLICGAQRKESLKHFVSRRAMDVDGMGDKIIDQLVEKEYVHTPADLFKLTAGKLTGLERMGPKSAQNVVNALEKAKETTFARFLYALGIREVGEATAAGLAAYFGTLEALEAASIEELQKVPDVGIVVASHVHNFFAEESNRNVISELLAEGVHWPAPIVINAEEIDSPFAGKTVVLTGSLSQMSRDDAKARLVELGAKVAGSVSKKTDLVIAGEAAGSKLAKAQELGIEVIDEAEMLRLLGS

CCN(CC)CCCC(C)Nc1c2ccc(Cl)cc2nc2ccc(OC)cc12 (stereo not shown) [quinacrine, quinacrine dihydrochloride]
pIC50: ~4.70
